Test system: Fc-CD22
Assay: BIACORE blocking of murine anti-CD22 mAbs by G5/44 on immobilized Fc-CD22
Assay type: binding
Settings: Fc-CD22 saturated with G5/44 (100 μg/ml), before murine mAb
Procedure: Whether or not G5/44 can inhibit the binding of murine mAbs of known specificity to CD22 was evaluated by BIACORE™ analysis using Fc-CD22 immobilized to a BIACORE™ CM5 chip. The surface plasmon resonance units (RU) obtained with and without prior saturation of the immobilized Fc-CD22 with G5/44 were compared. Biomolecular interaction analysis was performed using a BIACORE™ 2000. Antibodies were passed over a blank control surface (flowcell 1, serves as a control, no protein was coupled) and the test surface of Fc-CD22 (flowcell 2) immobilized on a CM5 sensor chip via amine coupling chemistry to a level of 9,042 RU. The resultant sensorgram was the response (RU) on flowcell 2 minus the response (RU) on flowcell 1. A second sensorgram was obtained by first saturating the flowcells with G5/44 (100 μg/ml) before the introduction of murine mAbs against CD22 that had been previously characterized for their binding. Immediately upon measuring the G5/44 response, murine anti-CD22 mAbs were individually perfused without removing G544. The second combined response generated due to the binding of murine anti-CD22 mAb to G5/44-coated CD22 was also recorded. If the murine antibody bound to CD22 at sites unrelated to those occupied by G5/44, then the combined responses would be additive. […]

Sequence of Fc-CD22 (P20273 20-416 limits assumed): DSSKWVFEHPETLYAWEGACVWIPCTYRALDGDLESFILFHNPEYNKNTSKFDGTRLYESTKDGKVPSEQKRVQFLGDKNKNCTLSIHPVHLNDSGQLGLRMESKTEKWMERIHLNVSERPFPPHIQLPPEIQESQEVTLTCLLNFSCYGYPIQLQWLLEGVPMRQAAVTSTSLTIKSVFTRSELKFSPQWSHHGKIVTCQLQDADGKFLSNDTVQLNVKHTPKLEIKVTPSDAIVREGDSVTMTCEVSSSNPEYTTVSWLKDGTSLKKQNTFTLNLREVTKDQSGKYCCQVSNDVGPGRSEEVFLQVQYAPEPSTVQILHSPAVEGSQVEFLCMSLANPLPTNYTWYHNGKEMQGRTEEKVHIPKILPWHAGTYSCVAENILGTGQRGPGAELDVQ

Substance: 5/44: murine anti-CD22 monoclonal antibody, the murine parent of G5/44
- Response 1 with G544: 725.1 RU

Source: patent US9351986B2, “Calicheamicin derivative-carrier conjugates” (priority 2002, dated 2016)
